The values that follow come from paper PMC2858449 (Journal of immunology (Baltimore, Md. : 1950), 2009).

The subject of experiment [1] is CD8^+ T cells. In words: Intracellular cytokine staining for IFN-γ, IL-2 and TNF-α. The conditions noted are these: HIV-1BaL Env-immunized mice (DNA-primed/rAd-boosted); peptide stimulation. It counts as cell-based, BALB/c mice.
Experiment [2] deals with CD8^+ T cells. It counts as cell-based, BALB/c mice. The conditions noted are these: intracellular IFN-γ.

Like-named read-outs stand apart in the source and are kept apart here.

With IGPGRAFYA [PA9], the “proportion of triple-positive (IFN-γ, IL-2, TNF-α) CD8^+ T cells” value in the experiment with CD8^+ T cells [1] turned out to be 46%.

For the sequence IGPGRAFYTT [PT10], the “recall response to peptide (in words)” value in the experiment with CD8^+ T cells [2] (mice immunized with the HIV-1IIIB vaccine) is on record as “failed to respond”.

RGPGRAFVTI [P18I10, reference compound]: the “recall response to peptide (in words)” value in the experiment with CD8^+ T cells [2] (mice primed with HIV-1BaL DNA and boosted with rAd) is listed as “did not respond”.
